Experimental findings from US7195900B2, “Cloning and expression of D-amino acid oxidase from arthrobacter protophormiae” (Degussa AG, priority 2002, dated 2007) are described below.

In one series the target is T1, recombinant D-AAO (Glutamicibacter protophormiae, UniProt Q7X2D3).
T1 construct: The restriction sites NdeI and BamHI were attached to the dao gene by PCR; made in house; host or cells: E. coli BL21(DE3)
Description: Substrate specificity of the recombinant D-AAO (photometric peroxidase/o-dianisidine test). In kind it is biochemical, Arthrobacter protophormiae. The note with it: for activity at 20000 µM: DL-amino acid, concentration increased to 20 mM; for activity at 20000 µM / activity at 10000 µM: read-out: Relative activity; for Substrate quality (in words): partial substrate spectrum, Table 2; for Stereoselectivity: conversion of L-amino acids by D-AAO: L-amino acids as substrate. On the procedure: (§1) To isolate D-AAO-forming microorganisms, soil samples were plated out on a nutrient medium in which coryneform bacteria can be concentrated: Na propionate 0.20 g; KNO3 0.01 g; KH2PO4 0.10 g; NaCl 0.25 g; MgSO4.7 H2O 0.10 g; CaCO3 0.02g; trace elements; vitamin solution; cycloheximide 0.05 g; if appropriate, agar 20.00 g; final pH 7.0. Microorganisms which grew on this medium were then transinoculated into a complex medium (DSM 65) with the following composition (per 1l): glucose 4.00 g; yeast extract 4.00 g; malt extract 10.00 g; agar 20 g; final pH 7.2. The strains were then multiplied in liquid medium (DSM 65), harvested by centrifugation, broken down, and the cell-free supernatant was obtained by centrifugation (=crude extract). This crude extract was then employed as an enzyme source for the photometric test for D-AAO activity. The test batch contained: 20 μl amino acid solution (100 mM); 80 μl TEA/o-dianisidine buffer; 10 μl peroxidase soln. (1,000 U/ml); 70 μl H2O; 20 μl crude extract. The measurement was carried out at 436 nm; 1 U corresponds to an amount of enzyme which converts 1 μmol of amino acid or 1 μmol of o-dianisidine per min (extinction coefficient ε for o-dianisidine=8.1 mM^−1 cm^−1).
A partial substrate spectrum was recorded for D-AAO (Table 2).
The stereoselectivity of the D-AAO was tested with the amino acids L-leucine, L-methionine and L-lysine. […] Thus, the D-AAO from Arthrobacter protophormiae can be described as highly stereoselective for D-amino acids.

The target in a further series is T2, partly purified D-AAO (Glutamicibacter protophormiae, UniProt Q7X2D3).
T2 sequence (Q7X2D3 1-326): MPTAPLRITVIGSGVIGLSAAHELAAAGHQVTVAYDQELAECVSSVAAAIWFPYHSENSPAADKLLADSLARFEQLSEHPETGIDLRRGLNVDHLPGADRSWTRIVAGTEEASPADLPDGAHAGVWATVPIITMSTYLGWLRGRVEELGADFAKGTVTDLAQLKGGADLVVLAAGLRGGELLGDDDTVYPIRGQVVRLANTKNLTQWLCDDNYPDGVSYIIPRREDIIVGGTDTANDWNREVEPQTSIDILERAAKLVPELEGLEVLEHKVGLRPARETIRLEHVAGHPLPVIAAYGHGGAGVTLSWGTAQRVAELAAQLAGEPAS
Description: biochemical. Particulars: read-out: Substrate excess inhibition K1. As to the method:
as §1

A short description of series [1]: D-AAO activity assay (specific activity of enzyme preparations). The class given is biochemical. As to the method:
as §1
Recombinant D-AAO was purified to homogeneity using a two-step procedure (Table 1). E. coli BL21(DE3) carrying pApdao was disrupted by ultrasonification and cell debris was removed by centrifugation. The cleared supernatant was loaded onto a Q-Sepharose FF column (h 10 cm×Ø 2.6 cm) (Amersham Bioscience), which was equilibrated with 10 mM potassium phosphate buffer pH 7.0 and run at a flow rate of 2 ml/min. The column was washed with 10 mM potassium phosphate buffer pH 7.0 containing 0.2 M NaCl and the D-AAO was eluted by increasing the salt concentration up to 0.35 M. Active fractions were pooled and loaded onto a column, which was packed with ceramic MacroPrep hydroxyapatite, type I (h 8.3 cm×Ø 1.6 cm) (Bio-Rad). The column was equilibrated with 10 mM potassium phosphate buffer pH 6.8 containing 150 mM NaCl and the flow rate was 2 ml/min. The D-AAO was detected in the flow-through.

Another series deals with T3, D-AAO (Glutamicibacter protophormiae, UniProt Q7X2D3).
T3 sequence (Q7X2D3 whole entry, looked up): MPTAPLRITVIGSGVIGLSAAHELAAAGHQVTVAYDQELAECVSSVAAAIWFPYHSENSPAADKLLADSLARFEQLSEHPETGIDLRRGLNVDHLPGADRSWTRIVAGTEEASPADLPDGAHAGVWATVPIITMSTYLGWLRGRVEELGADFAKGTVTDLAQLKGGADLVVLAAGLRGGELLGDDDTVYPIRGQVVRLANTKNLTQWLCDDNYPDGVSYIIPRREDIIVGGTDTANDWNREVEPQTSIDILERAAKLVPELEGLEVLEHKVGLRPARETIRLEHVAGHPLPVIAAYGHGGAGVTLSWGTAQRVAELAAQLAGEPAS
As to the kind of experiment: Influence of pH on D-AAO activity. The note with it: three substrates (lysine, phenylalanine, methionine), 10 mM; three 80 mM buffers. The class given is biochemical, Arthrobacter protophormiae. As to the method:
The enzyme activity was measured with three different substrates in the following 80 mM buffers: ♦ citric acid-sodium phosphate, pH 5–7; ▪ TEA/HCl, pH 7–8.5; ▴ glycine/NaOH, pH 8.5–11. Each D-amino acid tested was employed in a final concentration of 10 mM.
The influence of pH on the activity of the D-AAO with respect to the substrates […] was investigated in three different buffers: citric acid-sodium phosphate […]; TEA/HCl pH 7.0–8.5; and glycine/NaOH pH 8.5–11). The optimum pH for all three substrates was in the weakly basic range, between pH 7.5–8.5 (FIG. 2).

Series [2] in a line: Isoelectric focussing of D-AAO. The class given is physicochemical. The note with it: experimentally determined, polyacrylamide gels pH 4–6. On the procedure: A molecular mass for a monomer of the D-AAO of 40 kDA was determined by means of SDS gel electrophoresis. […] The calculated molecular mass of the monomer was 34.6 kDa without and 35.4 kDa with FAD. These values indicate that the enzyme has a dimeric structure. Isoelectric focussing was performed using precast Serva polyacrylamide gels with a narrow pH range (pH 4–6). The experimentally determined pI was 4.4.

Substrate in series [3]: CSCC[C@@H](N)C(=O)O
Description: purified protein, by the assay type. The note with it: other: partly purified D-AAO.

For the molecule `NC(Cc1ccc(F)cc1)C(=O)O` (racemic) [4-Fluoro-DL-phenylalanine], on recombinant D-AAO, the activity at 20000 µM was 81%.
Same read-out and setting: for `CC(C)(C)C(N)C(=O)O` (racemic) [DL-tert-Leucine] the value was 0.12%.
The same measure, in the same setting: for `CNC(CC(C)C)C(=O)O` (racemic) [N-Methyl-DL-leucine] the value was 2.1%; for `COCC(N)C(=O)O` (racemic) [O-Methyl-DL-serine], 0.33%.
Consider `C[C@@H](N)C(=O)O` [D-Alanine], for which the activity at 10000 µM at recombinant D-AAO was determined as 0.26%.
As for `N=C(N)NCCC[C@@H](N)C(=O)O` [D-Arginine], on recombinant D-AAO, the “Substrate quality (in words)” value is “effective in converting” and the activity at 10000 µM was found to be 80%.
For `N[C@H](Cc1c[nH]cn1)C(=O)O` [D-Histidine], the activity at 10000 µM on recombinant D-AAO worked out at 5.9%.
`CC(C)C[C@@H](N)C(=O)O` [D-Leucine]: at recombinant D-AAO, the activity at 10000 µM was determined as 12%.
Take `NCCCC[C@@H](N)C(=O)O` [D-Lysine]: at recombinant D-AAO, the “Substrate quality (in words)” value is recorded as “best substrates” and the activity at 10000 µM came to 99%.
The matching figures for `CSCC[C@@H](N)C(=O)O` [D-Methionine]: “best substrates” and 100%.
As to `N[C@H](Cc1ccccc1)C(=O)O` [D-Phenylalanine], the Ki on partly purified D-AAO was determined as 55 mM. Also, at recombinant D-AAO, the “Substrate quality (in words)” value was “effective in converting” and the activity at 10000 µM worked out at 54%.
On to `O=C(O)[C@H]1CCCN1` [D-Proline], for which the activity at 10000 µM at recombinant D-AAO came to 0.25%.
On to `CC(C)[C@@H](N)C(=O)O` [D-Valine], for which the activity at 10000 µM at recombinant D-AAO was determined as 0.35%.
For `CC[C@H](C)[C@@H](N)C(=O)O` [D-allo-Isoleucine], the activity at 10000 µM on recombinant D-AAO amounted to 1%.
As for `CC(C)C[C@H](N)C(=O)O` [L-leucine], the “Stereoselectivity: conversion of L-amino acids by D-AAO” value on recombinant D-AAO is on record as “None of these compounds were converted”.
On the same count and under the same terms, for `NCCCC[C@H](N)C(=O)O` [L-lysine] the value was “None of these compounds were converted”; for `CSCC[C@H](N)C(=O)O` [L-methionine], “None of these compounds were converted”.

B1: partly purified D-AAO (Glutamicibacter protophormiae) (protein)
chain: MPTAPLRITVIGSGVIGLSAAHELAAAGHQVTVAYDQELAECVSSVAAAIWFPYHSENSPAADKLLADSLARFEQLSEHPETGIDLRRGLNVDHLPGADRSWTRIVAGTEEASPADLPDGAHAGVWATVPIITMSTYLGWLRGRVEELGADFAKGTVTDLAQLKGGADLVVLAAGLRGGELLGDDDTVYPIRGQVVRLANTKNLTQWLCDDNYPDGVSYIIPRREDIIVGGTDTANDWNREVEPQTSIDILERAAKLVPELEGLEVLEHKVGLRPARETIRLEHVAGHPLPVIAAYGHGGAGVTLSWGTAQRVAELAAQLAGEPAS
As to B1, the Specific activity in series [1] (after Hydroxyapatite (second chromatography), 10 mM D-Met, pH 7.6, 30° C.) is on record as 180 U/mg; in series [1] (after Q-Sepharose, 10 mM D-Met, pH 7.6, 30° C.), 80 U/mg; in series [1] (after high cell density fermentation of E. coli BL21(DE3) carrying pE1D), 15 U mg^−1; in series [1] (crude extract, E. coli BL21(DE3), 3 g cells, 10 mM D-Met, pH 7.6, 30° C.) it was 30 U/mg. The “Specific activity in the crude extracts of recombinant cells” value in series [1] (crude extracts of recombinant cells) is on record as 15–30 U mg^−1. Further, in series [1] (shaking flask, E. coli BL21(DE3) pE1D, 100 μM IPTG, 4 h at 30° C.), the “Specific D-AAO activity in the crude extract” value is 30 U/mg. The “Optimum pH” value with D-AAO was 7.5–8.5 pH. Further, the pI in series [2] was found to be 4.4. In series [3], the Km (as a rule, the concentration of substrate that gives half-maximal velocity) came to 900 µM.
